Measurements as given in PMC8861431, “Tissue Pharmacokinetic Properties and Bystander Potential of Hypoxia-Activated Prodrug CP-506 by Agent-Based Modelling” (Frontiers in Pharmacology, 2022).
Where two headings read alike, the source gives them in different places.

Tests used:
POR-R MCLs = assay: Multicellular layer (MCL) flux studies / (pro)drug transport model; assay type: in vitro ADME, human; details: for D s: diffusion coefficient in spheroid: Table 1
Description: The extravascular transport properties of CP-506 and its formed metabolites were investigated using a custom-designed diffusion apparatus, as described previously ([Hicks et al., 2006]). Briefly, MCL cultures were established by seeding 1 x 10^6 POR-R cells onto collagen-coated Millicell-CM inserts for 3 days. Established MCLs were placed at the interface of the two media-filled compartments of diffusion chambers. Diffusion chambers were placed in a 37°C water bath and gassed with a supraoxic (95% O2, 5% CO2) or anoxic (5% CO2, bal N2) mixture for at least 1 h prior to drug addition. Flux was initiated by the addition of internal standard ([^14C]-urea) and 20 µM CP-506 to the donor compartment. Samples (100 µl) were collected from both the donor and receiver compartments for up to 5 h thereafter. At each time point, a 25 µl aliquot was mixed with emulsifier-safe water-accepting scintillant and assayed for radioactivity using a Perkin Elmer Tricard 2910 TR liquid scintillation analyser. The remaining sample was treated with two volumes of ice-cold acetonitrile (containing 2 µM of the relevant deuterated internal standards) and stored at −80°C until LC-MS/MS analysis. Similar experiments were performed using collagen-coated inserts without MCLs to deduce the chemical stability and diffusion coefficient of CP-506 across the bare support membrane.
Drug transport in MCLs was modelled as a one-dimensional diffusion with reaction across four consecutive compartments (stirred donor, POR-R MCL, collagen-coated teflon support membrane and stirred receiver) using a custom designed MatLab routine ([Foehrenbacher et al., 2013a]). Model parameters were derived by fitting Eq. 1 and Eq. 2 to the measured concentration-time profile of internal standard [^14C]-urea, CP-506, CP-506H and CP-506M in MCL flux studies. The flux of CP-506 and its metabolites across POR-R MCLs was described using Fick’s second law with a reaction term: ∂CeN/∂t=DN∂^2CeN/∂x^2−klossNCeN− φ( kinNCeN− koutNCiN) (1) ∂CiN/∂t= kmet0(N−1)Ci(N−1)+φ(kinNCeN− koutNCiN)−kmet0NCiN (2) where C is the concentration of the diffusing substance at position x and time t in the extracellular (e) or intracellular (i) compartment, D is the diffusion coefficient through either a bare support membrane (without cells) (D suo ) or extracellular space of a POR-R MCL (D MCL ), k loss is the rate constant for first-order loss (instability) in culture medium, k in and k out are the rate constants for transmembrane transport and k met0 is the rate constant for intracellular metabolism and instability for each compound (N). For metabolites, N-1 represents the previous compound from which the current compound is produced by metabolism. Experimental data was fitted iteratively to derive a tissue diffusion coefficient (DMCL) and metabolic scaling factor (φ i ) to restrain parameter estimates from the cellular PK model (Kin, Kout, Kmet0). The diffusion coefficient for CP-506 across the bare support membrane (Dsup) was determined by solving Eq. 1 with a reaction term only for chemical instability. MCL thicknesses were estimated by fitting the measured [^14C]-urea concentrations to those predicted by Eq. 1 and Eq. 2 without instability or metabolism by using the known diffusion coefficient (DMCL) for [^14C]-urea in HCT-116 MCLs ([Wilson et al., 2004]). The diffusion coefficient (DMCL) for CP-506 in POR-R MCLs was then fitted from the measured concentrations in the donor and receiver compartments of supraoxic experiments by assuming one-directional diffusion in the extracellular space. The metabolic scaling factor (φ i ) was then fitted from the measured concentrations in the donor and receiver compartment of anoxic experiments by fixing parameter estimates to the diffusion coefficient (DMCL) from supraoxic experiments.

[1] = Media stability studies (stirred medium without serum, 37°C); assay type: physicochemical
Description: The stability of each compound was determined in stirred medium (without serum) maintained under aerobic conditions by the constant supply of a humidified gas mixture comprised of 21% O2, 5% CO2 with balance N2. Vials were spiked with 100 µM of the relevant compound, and samples were collected using a positive displacement pipettor for up to 3 h thereafter. The collected samples were then treated with two-volumes of ice-cold acetonitrile containing 2 µM of the relevant deuterated (D8) internal standard and stored at −80°C until LC-MS/MS analysis.
(§1) The LC system for tandem MS consisted of an Agilent 1200 autosampler (4°C) and binary pump, a 3.0 × 50 mm, 1.8-micron Zorbax SB-C18 column (Agilent; PN: 827975-302) and 2.1 × 7 mm guard column (Alltech, IL) maintained at 35°C, at a pressure of <400 bar and flow rate of 0.3 ml/min. The mobile phase comprised a gradient of 0.01% formic acid in 80% acetonitrile - 20% water, v/v (solvent A), and 0.01% formic acid in water (solvent B). Initial mobile phase composition was 20% solvent A and 80% solvent B, increasing to 60% A (0–3 min) then 80% A (3–5.45 min), returning to initial conditions (5.5–6 min). Post-run time was 1 min, and the total run time was […]. Mass spectrometric detection was carried out using an Agilent 6410 triple quadrupole mass spectrometer equipped with a multimode ionization (MMI) source. The mass spectrometer was operated in electrospray positive ionization mode using multiple reaction monitoring (MRM), with Q1 & Q3 set to unit resolution ([…]). The electrospray ionization parameters, optimized for the parent molecular ion ([M+H]+) abundance were: drying gas temperature 325°C, vaporiser temperature 150°C, drying gas flow 5 L/min, nebuliser pressure 50 psi, capillary voltage 1.8 kV, Delta EMV 300 V. Ultra-pure nitrogen was used as collision gas. The divert valve feature of the Agilent 6410 triple quadrupole mass spectrometer was utilised to prevent the eluate from entering the ionisation source chamber during the first 0.5 min of each run. For CP-506 samples, positively charged ions representing the [M+H]+ for CP-506 and CP-506-D8 were collisionally dissociated to form specific product ions which were monitored in MS2 (unit resolution). The MRM transition, ionization mode, collision energy, dwell time, fragmentor voltage and retention time for all compounds is provided in Supplementary Table S2. Agilent MassHunter software (v.4.04.00) was used for data acquisition and chromatographic peak integration.

[2] = tested on: HCT-116 cells (PORko-G, HCT-116 WT, POR-R); assay: Cellular metabolism assay (LC-MS/MS of reduced metabolites); assay type: in vitro ADME, human; details: for Metabolite concentration, fold higher in POR-R cells than HCT-116 WT cells / Metabolite concentration, fold lower in PORko-G cells than HCT-116 WT cells: after 1 h treatment with 100 µM CP-506, anoxic
Description: Aerobic and anoxic conditions were achieved as described above. Cells (5 x 10^5 per well) were seeded with 350 µl medium in duplicate into 24-well plates and left to attach for 2 h in a humidified 37°C incubator. A working solution of CP-506 was prepared in culture medium to achieve a 100 µM concentration in each well after the addition of a 500 µl volume. Plates were exposed to drug for 1 h in a humidified 37°C incubator. Metabolism was then halted by the addition of two-volumes of ice-cold acetonitrile containing 2 µM of internal standard for each analyte. Samples were stored at −80°C until LC-MS/MS analysis.
as §1

[3] = buffer, Table 1, stirred culture medium at 37°C, read-out: Half-life: time required to reduce the concentration of drug to half of its initial value (converted)
[4] = assumed equivalent to CP-506 for the active metabolites
[5] = 37°C, aerobic, medium without serum/cells, 100 µM, read-out: Half-life (T1/2) in stirred medium

| Compound | D s: diffusion coefficient in spheroid (POR-R MCLs; DMCL fitted in POR-R MCLs under supraoxic conditions) | DMCL: diffusion coefficient across POR-R MCLs (POR-R MCLs; Table S4, anoxia, fixed to the supraoxic value) | DMCL: diffusion coefficient across POR-R MCLs (POR-R MCLs; Table S4, supraoxia) | DMCL: diffusion coefficient across POR-R MCLs (POR-R MCLs; supraoxic experiments) | Time without loss of mass balance in stirred medium ([1]; 37°C, aerobic, stirred medium) | half-life at 100 µM [1, 3] [min] | D s: diffusion coefficient in spheroid (POR-R MCLs; [4]) | half-life at 100 µM [1, 5] [min] | Metabolite concentration, fold higher in POR-R cells than HCT-116 WT cells [2] [fold] | Metabolite concentration, fold lower in PORko-G cells than HCT-116 WT cells [2] [fold] | Half-life (T1/2) in stirred medium ([1]; 37°C, aerobic, medium without serum/cells, 100 µM) [min] | Fold longer half-life than CP-506H or CP-506M ([1]; stirred medium, Figure 3B) [fold] | Metabolite production suppressed in POR knockout relative to the POR-overexpressing cell line ([2]; anoxic, Figure 3A) [fold] |
| --- | --- | --- | --- | --- | --- | --- | --- | --- | --- | --- | --- | --- | --- |
| CCN1CCN(C(=O)c2cc(N(CCBr)CCOS(C)(=O)=O)c(S(C)(=O)=O)cc2[N+](=O)[O-])CC1 [CP-506, 2-[(2-bromoethyl)-5-[(4-ethyl-1-piperazinyl)carbonyl]-2-(methylsulfonyl)-4-nitroanilino]ethyl methanesulfonate] | 1.93 × 10^−7 ± 1.8 × 10^−8 cm^2s^−1 | 1.93 (fixed) x 10^-6 cm^2 s^-1 | 1.93 ± 0.01 (6) x 10^-6 cm^2 s^-1 | 1.93 ± 0.011 x 10^−7 cm^2s^−1 | over 360 min | 1800 |  |  |  |  |  |  |  |
| CCN1CCN(C(=O)c2cc(N(CCBr)CCOS(C)(=O)=O)c(S(C)(=O)=O)cc2NO)CC1 [CP-506H, 2-((2-bromoethyl)(5-(4-ethylpiperazine-1-carbonyl)-4-(hydroxyamino)-2-(methylsulfonyl)phenyl)amino)ethyl methanesulfonate] |  |  |  |  |  | 10.8 | 1.93 × 10^−7 ± 1.8 × 10^−8 cm^2s^−1 | 10.5 | 5.5 |  |  |  |  |
| CCN1CCN(C(=O)c2cc(N(CCBr)CCOS(C)(=O)=O)c(S(C)(=O)=O)cc2N)CC1 [CP-506M, 2-((4-amino-5-(4-ethylpiperazine-1-carbonyl)-2-(methylsulfonyl)phenyl)(2-bromoethyl)amino)ethyl methanesulfonate] |  |  |  |  |  | 7.8 | 1.93 × 10^−7 ± 1.8 × 10^−8 cm^2s^−1 | 7.6 |  | 4.1 |  |  |  |
| CCN1CCN(C(=O)c2cc(N(CCCl)CCCl)c(S(C)(=O)=O)cc2N)CC1 [CP-506M-Cl2, (2-Amino-5-(bis(2-chloroethyl)amino)-4-(methylsulfonyl)phenyl)(4-ethylpiperazin-1-yl)methanone] |  |  |  |  |  | 271 | 1.93 × 10^−7 ± 1.8 × 10^−8 cm^2s^−1 | 271 | 8.6 | 17.7 | 271 | ≥ 10 | 151 |
